Test results from article PMC4148842 (The Journal of Biological Chemistry, 2014).
“Also recorded” adds a separate entry of the source. Values belong to the substance of their own block, whether it stands above or below them.

Legend:
[1] = molecular target: T1, MMP-13 (Homo sapiens, UniProt P45452); assay: MMP-13 Toolkit SPBA, pro and active forms, wild type and E204A taken together; assay type: binding; conditions: for binding of MMP-13 preparations: all or several MMP-13 preparations, SPBA
From the text: (§1) Recombinant proMMP-13 was expressed and purified as previously described ([18]). […] ProMMP-13(E204A) was expressed in Escherichia coli BL21(DE3), refolded, purified, and activated essentially as described for proMMP-1(E200A) ([19], [20]).
(§2) Unless stated otherwise, all peptides were triple-helical, a structure maintained by the flanking sequences, GPC(GPP)5- and -(GPP)5-GPC-amide, at their N and C terminus, respectively. For simplicity, peptides are referred to by their specific guest sequence. A negative control peptide, (GPC-(GPP)10-GPC-amide) is referred to as GPP10.
(§3) Immulon 2 HB 96-well plates (Nunc, Langenselbold, Germany) were coated with Collagen Toolkit or other peptides, fibrillar or monomeric collagen at a saturating concentration (10 μg/ml in 0.01 M acetic acid) overnight at 4 °C. Fibrous bovine type I collagen was a gift from Ethicon Corporation (Somerville, NJ). Monomeric collagen was obtained from Devro (Bathurst, Australia). All further incubations were performed at 24 °C for 1 h unless otherwise stated. The wells were washed three times with adhesion buffer (1 mg/ml BSA in Tris-buffered saline (TBS) containing 0.1% (v/v) Tween-20) between each incubation step. The wells were blocked with 50 mg/ml BSA in TBS prior to the addition of MMP at a concentration of 83 nM (unless otherwise stated) in adhesion buffer. […] Rabbit HRP-linked anti-GST (GE Healthcare; dilution 1:10,000) was used to detect GST-Hpx. […] Binding curves were fitted using Prism 5.0 software (GraphPad, San Diego), allowing total binding (Bmax) and equilibrium dissociation constant (KD) to be determined.

[2] = molecular target: T1, MMP-13; assay: MMP-13 Toolkit solid-phase binding assay (SPBA), wild type active MMP-13; design: made in house; host or cells: mouse myeloma cells; conditions: 1 h, 24 °C; for binding: wild type active MMP-13, 83 nM, coating 10 μg/ml
From the text: as §1, §2
as §3, with “Monomeric collagen was obtained from Devro (Bathurst, Australia).” left out, “step.” for “step. The wells were blocked with 50 mg/ml BSA in TBS prior to the addition of MMP at a concentration of 83 nM (unless otherwise stated) in adhesion buffer.”
FIGURE 1. […] For reference, collagen D-periods corresponding to these peptides are shown as gray bars below, and the collagenase cleavage site indicated by an arrow.

[3] = molecular target: T2, MMP-13(E204A) (Homo sapiens, UniProt P45452, E223A); assay: MMP-13 Toolkit SPBA, active-site mutant MMP-13(E204A); assay type: binding; conditions: 83 nM, coating 10 μg/ml, 1 h, 24 °C
T2 construct: made in house; host or cells: Escherichia coli BL21(DE3)
From the text: as §1, §2
(§4) Immulon 2 HB 96-well plates (Nunc, Langenselbold, Germany) were coated with Collagen Toolkit or other peptides, fibrillar or monomeric collagen at a saturating concentration (10 μg/ml in 0.01 M acetic acid) overnight at 4 °C. Fibrous bovine type I collagen was a gift from Ethicon Corporation (Somerville, NJ). Monomeric collagen was obtained from Devro (Bathurst, Australia). All further incubations were performed at 24 °C for 1 h unless otherwise stated. The wells were washed three times with adhesion buffer (1 mg/ml BSA in Tris-buffered saline (TBS) containing 0.1% (v/v) Tween-20) between each incubation step. […] Binding curves were fitted using Prism 5.0 software (GraphPad, San Diego), allowing total binding (Bmax) and equilibrium dissociation constant (KD) to be determined. […]

[4] = test system: MMP-13 GST-Hpx domain; assay: MMP-13 Toolkit SPBA, isolated GST-Hpx domain; assay type: binding; conditions: Hpx 83 nM, anti-GST detection, 1 h, 24 °C
From the text: as §1, §2, §4

[5] = test system: Cat domain of MMP-13 (Δ249–451); assay: MMP-13 Toolkit SPBA, isolated Cat domain; assay type: binding; conditions: data not shown for Toolkit II
Method: as §1
Immulon 2 HB 96-well plates (Nunc, Langenselbold, Germany) were coated with Collagen Toolkit or other peptides, fibrillar or monomeric collagen at a saturating concentration (10 μg/ml in 0.01 M acetic acid) overnight at 4 °C. Fibrous bovine type I collagen was a gift from Ethicon Corporation (Somerville, NJ). Monomeric collagen was obtained from Devro (Bathurst, Australia). All further incubations were performed at 24 °C for 1 h unless otherwise stated. The wells were washed three times with adhesion buffer (1 mg/ml BSA in Tris-buffered saline (TBS) containing 0.1% (v/v) Tween-20) between each incubation step. […] Binding curves were fitted using Prism 5.0 software (GraphPad, San Diego), allowing total binding (Bmax) and equilibrium dissociation constant (KD) to be determined.
Proteins were C-terminally biotinylated using an EZ-Link® Micro Sulfo-NHS-Biotinylation Kit (Pierce) according to the manufacturer's instructions. Successful biotinylation was detected via Western blotting using an ultrasensitive Streptavidin-Peroxidase Polymer (Sigma).

[6] = test system: proMMP-1; conditions: ref [7], [31]; cited from earlier work
From the text: (§5) How can MMP-13 avoid this constraint? […] The effect is to move the collagen-binding S10′ pocket of M ...

[7] = test system: proMMP-3; conditions: ref [32]; cited from earlier work
From the text: as §5

[8] = test system: proMMP-9; conditions: ref [32]; cited from earlier work
From the text: as §5

[9] = test system: MMP-13; conditions: cited from earlier work
From the text: Collagenolytic MMPs are members of the zinc-dependent peptidase family whose tightly regulated proteolytic activities play a pivotal role in extracellular matrix homeostasis, cell migration and wound healing. […] The Cat and Hpx are thought to cooperate to recognize and bind to the cleavage site, in collagen D-period 4 (D4), three-quarters of the way along the tropocollagen molecule ([6], [7]). Binding of the Hpx is considered to facilitate local relaxation of the helix, allowing the Cat d ... || Comparison of the collagenase cleavage sites of the various fibrillar collagens with the sequences of the MMP-13-binding peptides provides a basis for their relative recognition and subsequent cleavage.

- binding of MMP-13 preparations [1]: negligible binding
- binding [2]: unable to bind
Substance: GCPP(GPPP)2GGPPPG-II-44 guest sequence -P(GPPP)2GGPPPGCPG-amide [linear peptide equivalent to II-44]

- binding of MMP-13 preparations [1]: supported no binding
Substance: GFOGLOGPS [44B, peptide containing only the missing triplets, GFOGLOGPS]

- A450 (adhesion) ([3]; mean of four experiments): ~0.8
Substance: GPQG∼LAGQRGIVGLOGQRGER [44J, 21-residue peptide, P4 to P17′, parent of the Ala-scan]
- A450 (adhesion) ([4]; coating 10 μg/ml, mean of four experiments): ~0.4
- binding of MMP-13 preparations [1]: MMP-13(E204A) binding most strongly (A450 ∼0.8), then proMMP-13, then proMMP-13(E204A), then active MMP-13, and lastly the Hpx domain alone

Substance: collagen
- binding [5]: able to recognize collagen; also recorded: bound weakly
- binding of MMP-13 preparations [1]: support firm adhesion of MMP-13 in both its active and pro- forms
- binding of proMMP-1 [6]: did not bind
- binding of proMMP-3 [7]: can bind collagen
- binding of proMMP-9 [8]: can bind collagen

Substance: collagen II: preferred substrate for MMP-13
- relative cleavage rate by MMP-13 ([9]; collagen II compared with collagens I and III, ref [3]): five times faster than collagen I; also recorded: six times faster than collagen III
- cleavage site of MMP-13 ([9]; position within collagen II helical domain, ref [11], [12]): Gly^775–Leu^776; also recorded: Gly^778–Gln^779

- binding [4]: bound fibrillar collagen I
- Kd ([1]; fibrillar collagen, MMP-13 preparations overall): ~0.04 µM
- A450 (adhesion) ([2]; wild type MMP-13 (active or pro form not stated for the numbers), 83 nM, plates coated 10 μg/ml, mean of four experiments): ≥ 1.0
Substance: fibrillar type I collagen: Fibrous bovine type I collagen, a gift from Ethicon Corporation
- binding [5]: bound fibrillar collagen I, albeit weakly

- binding [3]: much lower binding
- binding [2]: much lower binding
Substance: monomeric type I collagen: Monomeric collagen obtained from Devro (Bathurst, Australia)
